Columns and labels:
[1] = test system: Typhlodromus pyri; assay: LR50; higher = less toxic; conditions: not reported; mortality
[2] = test system: Apis mellifera; conditions: acute; duration: 48 hours; oral; unspecified; mortality
[3] = test system: Cyprinus carpio; conditions: acute; duration: 96 hours; mortality
[4] = test system: Rattus norvegicus
[5] = test system: Tagia sp.; conditions: acute; duration: 14 days; mortality
[6] = test system: Oryctolagus sp.; conditions: reproduction developmental; reproduction
[7] = test system: Oncorhynchus mykiss; conditions: chronic/long-term; duration: 21 days; behavior
[8] = test system: Colinus virginianus; conditions: for LD50: acute, oral, mortality
[9] = test system: Anas platyrhynchos; conditions: for LD50: oral, mortality
[10] = test system: Daphnia magna; conditions: chronic/long-term; duration: 21 days; reproduction

COc1c(Cl)ccc(Cl)c1C(=O)O [Dicamba]
LR50 [1]: 233 g/ha
LD50 [2]: > 100 µg/piece
LC50 [3]: > 100 µg/mL
LD50 ([4]; acute, oral, F, mortality): 1580 mg/kg-day
NOAEL ([4]; reproduction developmental, body weight): 35 mg/kg-day
LC50 [5]: > 1000 mg/kg
NOAEL [6]: 30 mg/kg-day
NOEC [7]: 180 mg/L
LD50 ([8]; diet): > 995 mg/kg-day
LD50 [8]: 216 mg/kg-day
NOEL ([8]; reproduction developmental): 170 mg/kg-day
LD50 ([9]; acute, unspecified): 1370 mg/kg-day
NOEL ([9]; reproductive): 89 mg/kg-day
LD50 ([9]; short-term, feed): > 1570 mg/kg-day
NOEC [10]: 97 mg/L

— EPA's ToxValDB 9.5 (doi:10.2903/j.efsa.2011.1965)
